# Data as given in patent publication US20210267193A1, “Pest Repellent Agent” (Kao Corporation, priority 2018, published 2021).
# Key:
# [1] = tested on: Aedes albopictus; assay: Mosquito landing rate using human forearm; format: in vivo; conditions: 4 cm x 5 cm test site, 5 mg (0.25 mg/cm^2), about 50 mosquitoes, 28° C., 70% RH
# Protocol: (4) Evaluation of Mosquito Landing Rate Using Human Forearm
# The repellent effect of the pest repellent on human forearm was evaluated in terms of a mosquito landing rate.
# (4-1) Preparation of Aedes albopictus
# Female adults of Aedes albopictus were purchased from Mostop Inc. The adults were bred in a room at 28° C. and a relative humidity of 70% RH with a 12-hour light/dark cycle after delivery and appropriately used for tests. During breeding of mosquitoes, a 3% by mass sucrose aqueous solution was given as a feed. In order to facilitate the induction to the forearm, before the test, the food was changed to water, and the mosquitoes were fasted for 12 hours or more.
# (4-2) Calculation of Landing Rate
# The forearm was washed with a body wash (Biore u, manufactured by Kao Corporation), and water droplets were wiped off with a paper towel, followed by performing acclimatization for 10 minutes at room temperature. Thereafter, a rubber glove (Singer Latex Long Glove M, manufactured by Utsunomiya Seisakusho Co., Ltd.) covering up to the elbow was put on the arm to be measured. The mosquito cannot bite through the rubber glove.
# The rubber glove was cut off with scissors to expose a test site of 4 cm×5 cm toward the inside of the forearm. The area around the opening of the rubber glove is reinforced with a pressure-sensitive adhesive tape. Then, the resultant was moved to a constant temperature and constant humidity room (28° C., relative humidity: 70%), followed by performing acclimatization for 3 minutes. 5 mg (0.25 mg/cm^2) of the repellent was applied on the test site with a finger wearing the rubber glove, and immediately thereafter, the arm was inserted into a test box (Bug Dorm-1, manufactured by MegaView Science Co., Ltd., 30 cm×30 cm×30 cm). Approximately 50 test mosquitoes are released in this test box. The mosquito stays on the skin and then begins to bite by placing a needle on the skin. In order to prevent blood sucking into the forearm, mosquitoes are removed by using an inset suction pipe passed through a hole into which the arm is inserted just before starting biting. The measurement was terminated at the time when the total number of mosquitoes that succeeded in landing (reached just before the start of biting) and mosquitoes that touched the skin but escaped without landing reached 15. […] The mosquito landing rate was calculated by the following equation. […]
# Each of the liquid oily components shown in Table 4 was applied onto the test site of the human forearm at a coverage of 0.25 mg/cm^2, and the mosquito landing rate on the applied surface of the forearm was calculated.
# [2] = Measurement of viscosity (B-type rotational viscometer); format: physicochemical; conditions: rotor M2 (12 or 6 rpm) or L adapter (30 rpm) as listed per sample
# Protocol: (2) Measurement of Viscosity
# Viscometer TVB-10, manufactured by […] Co., Ltd. was used as a B-type rotational viscometer according to JIS K7117-1:1999. As to components to be measured, a viscosity value greatly differs for every sample, and therefore, it is difficult to accurately measure all components under a single measurement condition. Then, the measurement was performed using two types of rotors. The viscosity was first measured at a rotational speed of 12 rpm using a rotor M2 in an environment at 23° C. At this time, the component having a viscosity of 2,500 mPa·s or more was again measured at a rotational speed of 6 rpm, to obtain the viscosity value.
# On the other hand, the component having a viscosity of 20 mPa·s or less was again measured at a rotational speed of 30 rpm using an L adapter that is a rotor for low viscosity in an environment of 23° C., to obtain the viscosity value.
# [3] = tested on: Aedes albopictus; assay: Mosquito landing rate on replica skin substrate applied with repellent; format: in vivo; conditions: for Landing rate (at 0.25 mg/cm^2): coverage 0.25 mg/cm^2 on polyurethane replica skin substrate
# Protocol: (3) Mosquito Landing Rate
# The repellent effect of the pest repellent was evaluated in terms of a mosquito landing rate.
# (3-1) Preparation of Aedes albopictus
# Female adults of Aedes albopictus were purchased from Mostop Inc. The adults were bred in a room at 28° C. and a relative humidity of 70% RH with a 12-hour light/dark cycle after delivery and appropriately used for tests. During breeding of mosquitoes, a 3% by mass sucrose aqueous solution was given as a feed.
# (3-3) Calculation of Mosquito Landing Rate
# The mosquito landing rate was determined by applying a repellent onto the aforementioned replica skin substrate in the manner as mentioned below to form a substrate surface, counting the number of mosquitoes landed on the substrate surface, and calculating the mosquito landing rate on the applied surface. This replica skin substrate is a disk having a diameter of 5 cm. Here, the term “landed” means that the mosquito stayed on the replica skin substrate for at least one second.
# Four replica skin substrates were prepared, two of which were uniformly applied with a repellent with a fingertip wearing a rubber glove, and the other two were not applied with the repellent. Thereafter, the four substrates were vertically mounted in a glass box having a length, a width, and a height of about 6 cm on each side, such that the applied surface was located inside the boxy. This box has a circular hole with a diameter of 4 cm in the vertical and horizontal directions when viewed from the top, and by setting the aforementioned substrate, a part of the inner wall surface of the box can be made as the substrate surface. Two adjacent surfaces among the four surfaces of the inner wall of the box were set as substrates onto which the repellent was applied.
# Four mosquitoes were enclosed in the glass-made box, and a shock was applied to force the mosquitoes to fly, thereby recording on what surface they first landed within 10 seconds. This was repeated 20 times, and the mosquito landing rate on the applied surface was calculated by the following equation.
# Mosquito landing rate on applied surface (%)={(Number of mosquitoes landed on two surfaces of replica skin substrates applied with repellent)/(Number of mosquitoes landed on any of four surfaces of replica skin substrates)}×100
# In the case of repeating the aforementioned test, fresh unused mosquitoes were used for every test, and the landing rate was calculated as an average.
# It is expressed that as the landing rate is lower, the staying of mosquitoes can be suppressed, and the repellent effect is excellent.
# In Comparative Example 2, a frosted glass-made substrate (Tempax #240, manufactured by Cosmode Co., Ltd.) was used in place of the replica skin substrate.
# The liquid oily component shown in Table 1 was prepared, and the liquid oily component shown in Table 2 was uniformly applied onto the aforementioned replica skin substrate at a coverage of 0.5 mg/cm^2, and the mosquito landing rate was calculated.
# In Example 1, each of the liquid oily components shown in Table 3 was uniformly applied onto the replica shin substrate at a coverage of 0.25 mg/cm^2, and the mosquito landing rate was calculated.
# [4] = Measurement of surface tension (Wilhelmy method, Tensiometer K100); format: physicochemical; conditions: static surface tension, platinum plate
# Protocol: (1) Measurement of Surface Tension
# An automatic surface tensiometer: Tensiometer K100 (manufactured by KRUSS GmbH) was used to measure the static surface tension by the Wilhelmy method using a platinum plate in an environment at 25° C.
# [5] = tested on: pests; conditions: content in the pest repellent composition; existing pest repellents; cited from earlier work
# [6] = coverage 0.5 mg/cm^2 on polyurethane replica skin substrate, stay of at least 1 second counts as landed, lower = better repellent effect
# [7] = lower = better repellent effect
Compound,Landing rate on exposed area (at 0.25 mg/cm^2) [1],Viscosity (at 23° C.) [2],"Landing rate (at 0.5 mg/cm^2) [3, 6]",Surface tension (at 25° C.) [4],effective amount [5],Landing rate (at 0.5 mg/cm^2) ([3]; coverage 0.5 mg/cm^2 on frosted glass-made substrate (Tempax #240) in place of replica skin substrate),"Landing rate (at 0.25 mg/cm^2) [3, 7]"
"CC(C)=CCC/C(C)=C/CC/C(C)=C/CC/C=C(\C)CC/C=C(\C)CCC=C(C)C [Hydrocarbon oil d3, Squalene]",12%,42 mPa · s,21%,30 mN/m,–,–,–
"CCCCCCCCCCCCCCCCOC(C)CC(C)C (centres unmarked) [Ether oil c1, Cetyl-1,3-dimethylbutyl ether]",15%,7 mPa · s,13%,28 mN/m,–,–,–
"CC(C)CCCCCCCCCCOC(=O)CCCCCC(C)C [Ester oil b2, Isotridecyl isononanoate]",–,11 mPa · s,15%,28 mN/m,–,–,–
CCC(C)OC(=O)N1CCCCC1CCO (centres unmarked) [Icaridin],–,–,–,–,≥ 5 % by mass,–,–
"OCCCO [Polyhydric alcohol fx1, 1,3-Propanediol, reference compound]",–,53 mPa · s,–,48 mN/m,–,39%,–
"CCCCCCCCCCCCCCCC(=O)OC(C)C [Ester oil b4, Isopropyl palmitate]",–,7 mPa · s,19%,27 mN/m,–,–,–
"CCCCCCCCCCCCCC(=O)OC(C)C [Ester oil b5, Isopropyl myristate]",24%,5 mPa · s,11%,28 mN/m,–,–,11%
Polyglyceryl diisostearate [Ester oil bx1],–,1000 mPa · s,21%,27 mN/m,–,–,–
"CCCCC(CC)C(=O)OCC(C)(C)COC(=O)C(CC)CCCC (centres unmarked) [Ester oil b3, Neopentyl glycol di-2-ethylhexanoate]",–,–,12%,28 mN/m,–,–,–
"OCC(O)CO [Polyhydric alcohol fx2, Glycerin, reference compound]",75%,–,–,65 mN/m,–,–,–
"CCCCCCCCCCC(CO)CCCCCCCC (centres unmarked) [Higher alcohol e1, 2-Octyl dodecanol]",–,74 mPa · s,–,29 mN/m,–,–,16%
CC(C)=CCCC(C)CCO (centres unmarked) [citronellol],–,–,–,–,≥ 10 % by mass,–,–
"CCCCCCCCCC(=O)OCC(C)(C)COC(=O)CCCCCCCCC [Ester oil b6, Neopentyl glycol dicaprate]",–,15 mPa · s,20%,28 mN/m,–,–,–
"CC(C)CCCCCCOC(=O)CCCCCC(C)C [Ester oil b1, Isononyl isononanoate]",–,6 mPa · s,22%,25 mN/m,–,–,–
"CCN(CC)C(=O)c1cccc(C)c1 [DEET, N,N-diethyl-m-toluamide]",–,–,–,–,≥ 4 % by mass,–,–
